Data as given in patent US12459951B2, “Compounds that interact with RAS superfamily proteins for treatment of cancers, inflammatory diseases, rasopathies, and fibrotic disease” (SHY Therapeutics, LLC, priority 2022, dated 2025).

What was measured:
MAPK p38 phosphorylation = assay: MAPK p38 Activation Assay (western blot), Panc-1; assay type: cell-based, human; conditions: at 10 μM, Panc-1 pancreatic cancer cell line; starred symbols = activation
Outline: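 Panc-1 cells (KRas G12D) were treated with compound for 6 h at 37 °C, at 10 μM or as serial dilutions for IC50, with 0.3% DMSO. Method 1 used overnight serum-starved cells (0.5% FBS) stimulated with 1.5 ng/ml EGF for 15 min; Method 2 used unstimulated cells in 10% FBS. Phospho-p38 (Thr180/Tyr182) was detected by western blot.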

cdc42 = target: T1, cdc42 (Homo sapiens, UniProt P60953); assay: Cdc42 GTP Binding Domain Inhibition Assay; conditions: read-out: Cdc42: % inh.
T1 construct: made in house
T1 sequence (P60953 whole entry, the tested form may be a part): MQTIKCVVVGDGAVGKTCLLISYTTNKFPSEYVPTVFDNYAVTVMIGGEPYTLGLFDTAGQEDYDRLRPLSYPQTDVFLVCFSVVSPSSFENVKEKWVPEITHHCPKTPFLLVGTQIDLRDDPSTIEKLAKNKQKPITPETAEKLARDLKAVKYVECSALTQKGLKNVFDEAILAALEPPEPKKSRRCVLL
Outline: (§1)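 His-tagged cdc42 or Rheb (10–30 μg/mL) bound to nickel plates, then exposed to compound (20 μM, or serial dilutions for IC50) in 1% DMSO for 3 h at room temperature, ±Sos during final hour. Cy3- or Cy5-GTP (100 nM) added for 45 min; bound labelled GTP read by fluorescence after washes.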

Rheb = target: T2, Rheb (Homo sapiens, UniProt Q15382); assay: Rheb GTP Binding Domain Inhibition Assay; conditions: read-out: Rheb: % inh.
T2 construct: made in house
T2 sequence (Q15382 whole entry, the tested form may be a part): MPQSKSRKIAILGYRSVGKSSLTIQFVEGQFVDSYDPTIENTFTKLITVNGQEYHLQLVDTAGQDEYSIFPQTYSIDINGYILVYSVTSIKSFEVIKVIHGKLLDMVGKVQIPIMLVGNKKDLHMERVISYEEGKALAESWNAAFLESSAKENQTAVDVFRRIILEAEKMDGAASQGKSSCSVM
Outline: as §1

[1] = Kinetic Solubility Assay in pH 7.4 Buffer + 2% DMSO; assay type: physicochemical; conditions: phosphate-buffered saline pH 7.4 with 2% DMSO, aqueous buffer, kinetic from dmso stock, 25° C., two hours
Outline: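 Compound from 20 mM DMSO stock diluted to nominal 400 μM in PBS pH 7.4 with 2% DMSO, in duplicate, shaken 2 h at 25° C., then filtered. Filtrate quantified by UV absorbance (230-550 nm) against 10-200 μM calibration curves; effective range ~2-400 μM.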

Compound | % inh of MAPK p38 in Panc-1 (MAPK p38 phosphorylation) | inhibition at 20 µM (cdc42) [%] | inhibition at 20 µM (Rheb) [%] | solubility at 2 h [1] [µM]
Cc1c(-c2ccn(C(C)C)n2)cn2nc(-c3nccn3C)nc(Nc3cnccn3)c12 [Compound 62, 6-(1-Isopropyl-1H-pyrazol-3-yl)-5-methyl-2-(1-methyl-1H-imidazol-2-yl)-N-(pyrazin-2-yl)pyrrolo[2,1-f][1,2,4]triazin-4-amine] | H* (H* ≥ 100% activation) | 1 to 25 | 0 | < 10
Cc1c(-c2ccn(C(C)C)n2)cn2nc(-c3nccn3C)nc(Nc3ccccn3)c12 [Compound 57, 6-(1-Isopropyl-1H-pyrazol-3-yl)-5-methyl-2-(1-methyl-1H-imidazol-2-yl)-N-(pyridin-2-yl)pyrrolo[2,1-f][1,2,4]triazin-4-amine] | E* (E* = 1-30% activation) | 76 to 100 | 76 to 100 | 10 to 30
Cc1c(-c2ccn(C(C)C)n2)cn2nc(-c3nccn3C)nc(Nc3ncccn3)c12 [Compound 54, 6-(1-Isopropyl-1H-pyrazol-3-yl)-5-methyl-2-(1-methyl-1H-imidazol-2-yl)-N-(pyrimidin-2-yl)pyrrolo[2,1-f][1,2,4]triazin-4-amine] | H* (H* ≥ 100% activation) | 50 to 75 | 76 to 100 | < 10
COc1ccnc(Nc2nc(-c3nccn3C)nn3cc(-c4ccn(C(C)C)n4)c(C)c23)c1 [Compound 58, 6-(1-Isopropyl-1H-pyrazol-3-yl)-N-(4-methoxypyridin-2-yl)-5-methyl-2-(1-methyl-1H-imidazol-2-yl)pyrrolo[2,1-f][1,2,4]triazin-4-amine] | G* (G* = 75-99% activation) | 76 to 100 | 76 to 100 | 10 to 30
COc1cc(Nc2nc(-c3nccn3C)nn3cc(-c4ccn(C)n4)c(C)c23)ncn1 [Compound 63, N-(6-Methoxypyrimidin-4-yl)-5-methyl-2-(1-methyl-1H-imidazol-2-yl)-6-(1-methyl-1H-pyrazol-3-yl)pyrrolo[2,1-f][1,2,4]triazin-4-amine] | H* (H* ≥ 100% activation) | 76 to 100 | 50 to 75 | < 10
